{"source": "patent US20090104122A1", "about": "“DETECTION OF MEMBRANE ANDROGEN RECEPTOR (mAR) AGENTS” (priority 2006, published 2009)", "key": {"DU145 cells [1]": {"test_system": "DU145 cells", "test": "Quantitative measurement of apoptosis (APOPercentage Apoptosis Assay)", "type": "cell-based, human", "conditions": "for effect on apoptotic response of DU145 cells treated with Testo-BSA: 10^-6 M, agents blocking actin reorganization; for effect on testo-BSA induced apoptotic response: DU145 cells, signaling inhibitors", "excerpt": "In order to analyze a possible cross-talk between actin cytoskeleton reorganization and apoptosis upon mABS activation, we studied the apoptotic response of DU145 cells in the presence of specific agents blocking actin reorganization. […] The FACS analysis fully supported these observations. […] This assumption is in line with previously published data, showing that actin reorganization is an important signaling step, regulating NFkB translocation and transcriptional regulation of TNFα induced anti-apoptotic response (Papakonstanti and Stounaras, Mol Biol Cell, 2004).\nThe APOPercentage Apoptosis Assay (Biocolor Ltd., Belfast, N. Ireland) was used to quantify apoptosis, according to manufacturer's instructions. This kit uses a dye that stains red the apoptotic cells undergoing the membrane “flip-flop” event when phosphatidylserine is translocated to the outer leaflet. Detection of apoptosis can be readily observed under inverted microscopy. For apoptosis quantitation, the amount of dye within the labeled cells can subsequently be released into solution and the concentration measured at a wavelength of 550 nm (reference filter 620 nm) using a color filter microplate […] (Dynatech MicroElisa reader Chantilly, Va.)."}, "DU145 cells [2]": {"test_system": "DU145 cells", "test": "Immunoblot analysis of Triton-soluble and insoluble actin (actin polymerization)", "type": "cell-based, human", "conditions": "DU145 cells activated with testosterone-BSA", "excerpt": "There has been recognition that activation of mAR sites in LNCaP human prostate cancer cells results within minutes, in a significant rearrangement of the actin cytoskeleton, as indicated by the potent actin polymerization and microfilament reorganization (Kampa et al 2002). Using both, non-permeable testosterone analogs and specific inhibitors or antagonists of the intracellular androgen receptors (iAR), we provided strong evidence that in LNCaP cells this phenomenon was induced through the activation of the mARs. […] These quantitative results were fully supported by confocal laser scanning microscopic analysis of the actin cytoskeleton in testo-BSA treated DU145 cells. Indeed, a complete submembranous redistribution of the microfilamentous structures became evident within 10 minutes and persisted for at least 2 hours, as shown in FIGS. 3A-C.\nThe Triton-soluble proteins were precipitated with equal amounts of 6% perchloric acid (PCA). The Triton-insoluble fractions were precipitated with 1 ml of 3% PCA. Equal volumes of each fraction were subjected to SDS electrophoresis and proteins were transferred to a nitrocellulose membrane, using the LKB electrophoresis apparatus (LKB, Bromma, Sweden). […] Blots were developed using the enhanced chemiluminescence system, and the band intensities were quantitated by PC-based image analysis (Image Analysis, Inc., Ontario, Canada)."}, "RhoA": {"test_system": "RhoA", "test": "RhoA activation after mAR activation", "type": "cell-based, human", "conditions": "10^-7 M, DU145 cells", "excerpt": "Looking for an alternative mechanism mediating the non-genomic testosterone signaling in DU145 cells we analyzed a possible rapid activation of Rho-GTPase's. Indeed, among the signaling effectors that regulate such processes of actin reorganization, the best understood are small GTPases of the Rho family. Classically, plasma membrane receptors activate specific guanine exchange factors (GEFs) often via phosphorylation, which leads to subsequent loading of Rho GTPases with GTP. Active Rho GTPases continue signal transmission towards Rho coiled-coiled kinase 1 (ROCK1) and/or p21-activated kinase 1 (Pak1). Activated […] phosphorylate and activate Lim-kinases 1 and 2 (Limk1 and Limk2) respectively. Limk1 and Limk2 are closely related proteins composed of two N-terminal Lim domains and a C-terminal kinase domain. The Lim domains are protein-binding motifs frequently found in cytosolic proteins that interact with the actin cytoskeleton. Eventually, Limk1 and Limk2 phosphorylate actin-depolymerizing proteins such as cofilin and actin-depolymerizing factor (ADF), which are inactivated and thus permit actin polymerization to occur. […] To further analyze the downstream effector of RhaA activation, DU145 cells, activated with testo-BSA were treated with the specific ROCK inhibitor Y27632 and actin redistribution was documented quantitatively using the G/Total-actin ratio."}, "DU-145 cells": {"test_system": "DU-145 cells", "test": "Cell migration, adhesion and invasion after mAR activation", "type": "cell-based, human", "excerpt": "(§1) This contact induced significant actin remodelling followed by a decrease in cell migration, adhesion and invasion. […] Activation of the pathway induced signaling and actin reorganization. The pathway is not activated in LNCAP cells. […] This effect was not observed with the anti-androgen flutamide."}, "[3]": {"test_system": "prostate-specific antigen (PSA)", "conditions": "within minutes; cited from earlier work"}, "LNCAP cells": {"test_system": "LNCAP cells", "test": "Induction of apoptosis in LNCaP cells", "type": "cell-based, human", "excerpt": "as §1"}, "FAK/PI-3K/Rac1 pathway": {"test_system": "FAK/PI-3K/Rac1 pathway", "test": "FAK/PI-3K/Rac1 signaling after mAR activation", "type": "cell-based, human", "conditions": "DU145 cells, FAK constitutively phosphorylated", "excerpt": "Indeed, as shown in FIGS. 5A-B, FAK was constitutively phosphorylated in DU145 cells. […] These findings imply the existence of an alternative non-genomic signaling cascade regulating the rapid actin reorganization shown in FIGS. 2A-B."}, "[4]": {"test_system": "LNCaP-inoculated nude mice", "test": "In vivo tumor growth in LNCaP-inoculated nude mice", "conditions": "8 mg/kg weight for one month, compared to control animals"}}, "note": "Numbered stars: 1 amine (or outer) side, 2 acyl side, 3 side chain; on linkers, the order of the positions; unused ones are H or OH. Bridge positions count the residues as written; N and C are the ends. Square brackets hold non-standard residues; d marks the D form. Peptide text beside a SMILES is read from it. ξ: configuration not given here. ξTrp(2-yl) = O=C(C(Cc1c([*:3])[nH]c2ccccc12)N[*:1])[*:2]; X1 = CC(O)(CO)CC(N[*:1])C(=O)[*:2]; ξAsp(3ξ-OH) = NC(C(=O)O)C(O)C(=O)O; Hyp = O=C(O)[CH]1C[CH](O)CN1", "data": [{"compound": "C=C1[C@@H](C)[C@H]2[C@H](Cc3ccccc3)NC(=O)[C@]23OC(=O)/C=C/[C@H](O)CCC[C@@H](C)C/C=C/[C@H]3[C@@H]1O", "note": "[cytochalasin B]", "values": [{"measurement": "effect on apoptotic response of DU145 cells treated with Testo-BSA", "setting": "DU145 cells [1]", "result": "clear inhibition"}]}, {"compound": "CC1NC(=O)C2CC(O)CN2C(=O)C2CSc3[nH]c4ccccc4c3CC(NC1=O)C(=O)NC(CC(C)(O)CO)C(=O)NC(C(C)C)C(=O)NC(C(O)C(=O)O)C(=O)N2", "note": "(stereo not drawn) [phallacidin] (cyclo([ξAsp(3ξ-OH)]C[Hyp]A[ξTrp(2-yl)][X1]V); thioether 2-5; configuration not given here)", "values": [{"measurement": "effect on apoptotic response of DU145 cells treated with Testo-BSA", "setting": "DU145 cells [1]", "result": "clear inhibition"}]}, {"compound": "COC[C@H]1OC(=O)c2coc3c2[C@@]1(C)C1=C(C3=O)[C@@H]2CCC(=O)[C@@]2(C)C[C@H]1OC(C)=O", "note": "[wortmannin]", "values": [{"measurement": "effect on testo-BSA induced apoptotic response", "setting": "DU145 cells [1]", "result": "no effect"}, {"measurement": "effect on testosterone-induced rapid actin polymerization", "setting": "DU145 cells [2]", "result": "no effect"}]}, {"compound": "testosterone 3-(O-carboxymethyl)oxime:BSA [testosterone-BSA]", "values": [{"measurement": "induction of apoptosis", "setting": "DU145 cells [1]", "result": "induced apoptosis"}, {"measurement": "persistence of RhoA activation", "setting": "RhoA", "result": "up to two hours"}, {"measurement": "time of maximum RhoA activation", "setting": "RhoA", "result": 30, "unit": "min"}, {"measurement": "time to activation of RhoA", "setting": "RhoA", "result": "≤ 3", "unit": "min"}, {"measurement": "cell migration, adhesion and invasion", "setting": "DU-145 cells", "result": "decrease"}, {"measurement": "secretion of prostate-specific antigen (PSA)", "setting": "[3]", "result": "increase"}, {"measurement": "induction of apoptosis", "setting": "LNCAP cells", "result": "induced apoptosis"}, {"measurement": "FAK phosphorylation", "setting": "FAK/PI-3K/Rac1 pathway", "result": "neither apparent additional FAK phosphorylation could be documented"}, {"measurement": "reduction of tumor-size", "setting": "[4]", "result": 60, "unit": "%"}]}, {"compound": "C[C@@H](N)[C@H]1CC[C@H](C(=O)Nc2ccncc2)CC1", "note": "[Y27632]", "values": [{"measurement": "effect on testo-BSA induced apoptotic response", "setting": "DU145 cells [1]", "result": "abrogating"}, {"measurement": "effect on testosterone-induced rapid actin polymerization", "setting": "DU145 cells [2]", "result": "totally inhibited"}]}]}
